Laboratory results: the supplement of paper PMC5908809

Key:
NK-YS (IL-2 2.5 ng/mL) [1] = test: drug sensitivity score (DSS) (DSS units); higher = more sensitive; extreme values may be limits of the assay; details: 72 h
SNK-6 (IL-2 2.5 ng/mL) [2] = test: as above; details: 72 h
NK-92 (IL-2 2.5 ng/mL) [3] = test: as above; details: 72 h
NKL (IL-2 2.5 ng/mL) [4] = test: as above; details: 72 h
DERL-7 (IL-2 2.5 ng/mL) [5] = test: as above; details: 72 h
IMC-1 (IL-2 20 ng/mL) [6] = test: as above; details: 72 h
[7] = test system: normal primary NK cells, pool 3 (3 donors) (IL-2 2.5 ng/mL); test: as above; details: 72 h
KAI3 (IL-2 2.5 ng/mL) [8] = test: as above; details: 72 h
[9] = test system: normal primary NK cells, pool 1 (3 donors), resting (IL-2 0 ng/mL); test: as above; details: 72 h
[10] = test system: normal primary NK cells, pool 2 (3 donors) (IL-2 2.5 ng/mL); test: as above; details: 72 h
[11] = test system: normal primary NK cells, pool 1 (3 donors) (IL-2 2.5 ng/mL); test: as above; details: 72 h
KHYG-1 (IL-2 2.5 ng/mL) [12] = test: as above; details: 72 h
YT (IL-2 2.5 ng/mL) [13] = test: as above; details: 72 h
[14] = test system: normal NK cells expanded with K562-aAPC; test: as above; details: 72 h; IL-2 2.5 ng/mL
Description: (§1)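 Drug sensitivity and resistance testing on K562-aAPC-expanded normal NK cells: 5 concentrations (10-fold steps over a 10,000-fold range), 72 h at 37 °C, viability by CellTiter-Glo normalised to DMSO and benzethonium chloride controls; DSS from the fitted curve.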

[15] = test system: normal NK cells expanded with K562-aAPC; test: percent inhibition of viability; higher = more inhibition; details: 72 h, IL-2 2.5 ng/mL
Description: as §1

NK-YS (IL-2 2.5 ng/mL) [16] = test: as above; details: 72 h
SNK-6 (IL-2 2.5 ng/mL) [17] = test: as above; details: 72 h
NK-92 (IL-2 2.5 ng/mL) [18] = test: as above; details: 72 h
NKL (IL-2 2.5 ng/mL) [19] = test: as above; details: 72 h
DERL-7 (IL-2 2.5 ng/mL) [20] = test: as above; details: 72 h
IMC-1 (IL-2 20 ng/mL) [21] = test: as above; details: 72 h
[22] = test system: normal primary NK cells, pool 3 (3 donors) (IL-2 2.5 ng/mL); test: as above; details: 72 h
KAI3 (IL-2 2.5 ng/mL) [23] = test: as above; details: 72 h
[24] = test system: normal primary NK cells, pool 1 (3 donors), resting (IL-2 0 ng/mL); test: as above; details: 72 h
[25] = test system: normal primary NK cells, pool 2 (3 donors) (IL-2 2.5 ng/mL); test: as above; details: 72 h
[26] = test system: normal primary NK cells, pool 1 (3 donors) (IL-2 2.5 ng/mL); test: as above; details: 72 h
KHYG-1 (IL-2 2.5 ng/mL) [27] = test: as above; details: 72 h
YT (IL-2 2.5 ng/mL) [28] = test: as above; details: 72 h

O=C(NOC[C@H](O)CO)c1ccc(F)c(F)c1Nc1ccc(I)cc1F (max concentration tested 1000 nM)
Details	drug sensitivity score
DERL-7 (IL-2 2.5 ng/mL) [5]	23.1
IMC-1 (IL-2 20 ng/mL) [6]	0
KAI3 (IL-2 2.5 ng/mL) [8]	3.26
KHYG-1 (IL-2 2.5 ng/mL) [12]	9.09
NK-92 (IL-2 2.5 ng/mL) [3]	0
NK-YS (IL-2 2.5 ng/mL) [1]	0
NKL (IL-2 2.5 ng/mL) [4]	11.1
SNK-6 (IL-2 2.5 ng/mL) [2]	0
YT (IL-2 2.5 ng/mL) [13]	0
[7]	0
[9]	0
[10]	0
[11]	1.95
[14]	0

percent inhibition of viability [%]
Details	0.1 nM	1 nM	10 nM	100 nM	1000 nM
DERL-7 (IL-2 2.5 ng/mL) [20]	102	5.21	16.2	22.4	38.7
IMC-1 (IL-2 20 ng/mL) [21]	-4.97	0.45	-4.28	-5.8	-9.8
KAI3 (IL-2 2.5 ng/mL) [23]	-0.87	5.85	13.8	15.7	22.6
KHYG-1 (IL-2 2.5 ng/mL) [27]	-3.39	0.89	14.1	40.9	55
NK-92 (IL-2 2.5 ng/mL) [18]	-5.72	-7.22	-10.3	-30.8	-12.8
NK-YS (IL-2 2.5 ng/mL) [16]	-5.52	-3.02	-1.28	2.92	8.84
NKL (IL-2 2.5 ng/mL) [19]	-14.2	-2.12	27.4	41.5	59.1
SNK-6 (IL-2 2.5 ng/mL) [17]	4.76	22	-8.5	-17.1	-28.3
YT (IL-2 2.5 ng/mL) [28]	-2.67	-1.04	-2.4	1.31	4.12
[15]	-1.9	-4.6	-6.15	-9.26	-3.18
[22]	-7.16	-7.47	-4.48	-8.83	-4.17
[24]	2.14	0.69	1.05	6.05	7
[25]	-3.98	-4.69	-0.06	-5.3	5.01
[26]	-2.22	-8.03	2.53	15.6	18

OCCn1cc(-c2cnc3nnn(Cc4ccc5ncccc5c4)c3n2)cn1 (max concentration tested 2500 nM)
Details	drug sensitivity score
DERL-7 (IL-2 2.5 ng/mL) [5]	0
IMC-1 (IL-2 20 ng/mL) [6]	0
KAI3 (IL-2 2.5 ng/mL) [8]	0.81
KHYG-1 (IL-2 2.5 ng/mL) [12]	0
NK-92 (IL-2 2.5 ng/mL) [3]	3.17
NK-YS (IL-2 2.5 ng/mL) [1]	0.5
NKL (IL-2 2.5 ng/mL) [4]	3.7
SNK-6 (IL-2 2.5 ng/mL) [2]	0
YT (IL-2 2.5 ng/mL) [13]	0.06
[7]	0
[9]	0.02
[10]	0
[11]	0.34
[14]	0.06

percent inhibition of viability [%]
Details	0.25 nM	2.5 nM	25 nM	250 nM	2500 nM
DERL-7 (IL-2 2.5 ng/mL) [20]	-0.9	-0.84	0.34	-3	-8.26
IMC-1 (IL-2 20 ng/mL) [21]	-3.49	3.05	-2.66	5.69	6.58
KAI3 (IL-2 2.5 ng/mL) [23]	-0.76	-5.72	5.28	8.13	18.2
KHYG-1 (IL-2 2.5 ng/mL) [27]	-6.94	-4.08	-4.27	1.49	7.29
NK-92 (IL-2 2.5 ng/mL) [18]	-3.39	13.7	-1.59	11.9	33.2
NK-YS (IL-2 2.5 ng/mL) [16]	-3.62	-4.61	-4.57	1.28	16.9
NKL (IL-2 2.5 ng/mL) [19]	-0.17	5.36	16.3	12	17.6
SNK-6 (IL-2 2.5 ng/mL) [17]	-14.8	-17.6	-15.8	-7.55	1.66
YT (IL-2 2.5 ng/mL) [28]	-6.67	-5.28	-6.34	-0.92	12.8
[15]	-1.81	-5.59	-1.09	4.36	10.7
[22]	-4.09	3.45	7.9	-5.94	7.18
[24]	-7.9	6.66	4.48	7.02	11.4
[25]	-2.43	3.77	5.1	-2.16	4.71
[26]	-4.03	5.55	18.1	6.24	10.1
